Assay [1] concerns the target C-Raf kinase (SEQ. ID NO: 3) (Homo sapiens (Human), UniProt P04049, Y340D/Y341D). Description: Biochemical Assay for C-Raf (2). The following applies: Table J, biochemical assay (2); read-out: CRAF (2). A digest of the protocol: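 Coupled PK/LDH assay following NADH oxidation at 340 nm, read hourly for 4 h at 30 °C with 3.84 nM C-Raf, 50 nM MEK and 1 mM ATP in Tris pH 7.5, 15 mM MgCl2, 1% DMSO. Rates over 2–3 h converted to % inhibition against no-compound and known-inhibitor controls; IC50 from four-parameter sigmoidal fit.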

For assay [2], the target named is B-Raf kinase (SEQ. ID NO: 2) (Homo sapiens (Human), UniProt P15056). The experiment in a line: Biochemical Assay for B-Raf (2). The following applies: Table J, biochemical assay (2); read-out: BRAF (2). A digest of the protocol: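 Coupled pyruvate kinase/lactate dehydrogenase read-out of NADH oxidation at 340 nm, using 2 nM B-Raf, 50 nM MEK and 1 mM ATP in Tris pH 7.5 with 1% DMSO. Absorbance was read hourly for 4 h at 30 °C and rates taken over 2–3 h. IC50 came from a four-parameter sigmoidal fit.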

The next assay concerns Miapaca-2 cells. Description: MiaPaca-2 Cell Proliferation Assay (2). It is filed as cell-based. Conditions: Homo sapiens, MIA PaCa-2, single agent. The method, then:
MiaPaca-2 Cell Proliferation Assay (2)
Miapaca-2 cells (catalog #CRL-1420) are obtained from the American Type Culture Collect (ATTC, Manassas, VA). Briefly, cells were grown in DMEM supplemented with 10% characterized fetal bovine serum (Invitrogen, Carlsbad, CA), 2.5% New Zealand sourced horse serum and 1% Penicillin/Streptomycin/L-Glutamine at 37° C., 5% CO2, and 95% humidity. Cells are expanded until reaching 70-95% confluency at which point they are sub-cultured or harvested for assay use. A serial dilution of test compound is dispensed into a 384-well black clear bottom plate in triplicate. Seven hundred fifty cells are added per well in 50 μL complete growth medium in the 384-well plate. Plates are incubated for 67-72 h at 37° C., 5% CO2, and 95% humidity. At the end of the incubation, 10 μL of a 440 μM solution of resazurin (Sigma, St. Louis, MO) in PBS is added to each well of the plate and plates are incubated for an additional 5-6 h at 37° C., 5% CO2, and 95% humidity. Plates are read on a Synergy2 or equivalent reader (Biotek, Winooski VT) using an excitation of 540 nm and an emission of 600 nm. Data is analyzed using Prism software (GraphPad, San Diego, CA) to calculate IC50 values.

The test system of a further assay is H2405 cells. Description: H2405 Cell Proliferation Assay (2). Conditions: Homo sapiens, NCI-H2405. It is filed as cell-based.

The record followed here is patent US12319655B2, “RAF kinase inhibitors and methods of use thereof” (Deciphera Pharmaceuticals, LLC, priority 2021, dated 2025).

pIC50: −log10 of the molar value.

Sequence of C-Raf kinase (SEQ. ID NO: 3) (P04049 307-648 Y340D/Y341D): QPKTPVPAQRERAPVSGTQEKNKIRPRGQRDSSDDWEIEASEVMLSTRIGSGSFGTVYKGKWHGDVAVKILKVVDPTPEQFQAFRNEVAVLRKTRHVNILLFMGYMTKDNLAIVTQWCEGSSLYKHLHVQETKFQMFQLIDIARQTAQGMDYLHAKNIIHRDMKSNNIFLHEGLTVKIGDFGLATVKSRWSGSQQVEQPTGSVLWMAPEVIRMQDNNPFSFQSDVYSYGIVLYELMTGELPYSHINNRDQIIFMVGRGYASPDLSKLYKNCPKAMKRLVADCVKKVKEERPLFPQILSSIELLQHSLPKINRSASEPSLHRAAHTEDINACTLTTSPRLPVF
Sequence of B-Raf kinase (SEQ. ID NO: 2) (P15056 416-766): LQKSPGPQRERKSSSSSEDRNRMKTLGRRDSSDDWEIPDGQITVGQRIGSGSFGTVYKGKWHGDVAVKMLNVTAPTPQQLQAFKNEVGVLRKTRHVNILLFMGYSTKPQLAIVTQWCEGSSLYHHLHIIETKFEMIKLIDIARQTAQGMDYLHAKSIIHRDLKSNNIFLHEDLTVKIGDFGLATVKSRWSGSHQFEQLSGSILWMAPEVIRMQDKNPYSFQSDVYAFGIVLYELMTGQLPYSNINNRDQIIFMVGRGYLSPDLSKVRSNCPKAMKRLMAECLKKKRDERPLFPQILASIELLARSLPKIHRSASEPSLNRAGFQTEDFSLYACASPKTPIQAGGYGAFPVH

For the compound `CNC(=O)c1cc(-c2cc(-c3cc(NC(=O)c4ccnc(C(C)(C)F)c4)ccc3Cl)ccn2)ccn1` [Example 485], the pIC50 in assay [1] is at least 7.00; in assay [2], 6.30 to 7.00; with Miapaca-2 cells, 5.00 to 6.00; in the assay with H2405 cells, 6.30 to 7.00.

For the compound `Cc1ccc(NC(=O)c2ccnc(C(C)(C)F)c2)cc1-c1cnnc(-c2ccnc(C(N)=O)c2)c1` [Example 486], the pIC50 in assay [1] was at least 7.00; in assay [2] it was 6.30 to 7.00; in the assay with Miapaca-2 cells, 5.00 to 6.00; with H2405 cells it was 6.00 to 6.30.

As for `CNC(=O)c1cc(-c2cc(-c3cc(NC(=O)c4ccnc(C5(F)CC5)c4)ccc3C)ccn2)ccn1` [Example 487], the pIC50 is at least 7.00 in assay [1], at least 7.00 in assay [2], 5.00 to 6.00 with Miapaca-2 cells and at least 7.00 with H2405 cells.

In the case of `Cc1ccc(NC(=O)c2ccnc(C(C)(C)F)c2)cc1-c1cc(-c2ccnc(C(N)=O)c2)ncn1` [Example 488], the pIC50 in assay [1] was at least 7.00; in assay [2], at least 7.00; in the assay on H2405 cells, 6.30 to 7.00.

On to `[2H]C([2H])([2H])NC(=O)c1cc(-c2cc(-c3cc(NC(=O)c4ccnc(C(C)(C)F)c4)ccc3C)ccn2)ccn1` [Example 489], for which the pIC50 in assay [1] was at least 7.00; in assay [2], at least 7.00; with Miapaca-2 cells it was 5.00 to 6.00; in the assay with H2405 cells it was at least 7.00.

Turning to `Cc1ccc(NC(=O)c2ccnc(C(C)(C)F)c2)cc1-c1cc(-c2ccnc(C(N)=O)c2)ncc1F` [Example 490], the values for the pIC50 (in assay [1]; in assay [2]; with H2405 cells) were at least 7.00, 6.30 to 7.00 and 6.30 to 7.00, respectively.

In the case of `CC(C)(F)c1cc(C(=O)Nc2ccc(F)c(-c3ccnc(-c4ccnc(C(N)=O)c4)c3)c2)ccn1` [Example 491], the pIC50 in assay [1] is at least 7.00; in assay [2] it was at least 7.00; with H2405 cells it was 6.30 to 7.00.

Consider `CNC(=O)c1cc(-c2cc(-c3cc(NC(=O)c4cnnc(C(C)(F)F)c4)ccc3C)ccn2)ccn1` [Example 492], for which the pIC50 in assay [1] is at least 7.00; in assay [2] it was at least 7.00; in the assay with H2405 cells, 6.30 to 7.00.

As for `[2H]C([2H])([2H])NC(=O)c1cc(-c2cc(-c3cc(NC(=O)c4ccnc(C(C)(C)F)c4)ccc3C)cc(C)n2)ccn1` [Example 493], the pIC50 in assay [1] was at least 7.00; in assay [2], 6.30 to 7.00; with Miapaca-2 cells it was 5.00 to 6.00; in the assay with H2405 cells, 6.30 to 7.00.

As to `CNC(=O)c1cc(-c2cc(-c3cc(NC(=O)c4ccnc(C(C)(C)F)n4)ccc3C)ccn2)ccn1` [Example 494], the pIC50 in assay [1] is at least 7.00; in assay [2], 6.30 to 7.00; in the assay with Miapaca-2 cells, 5.00 to 6.00; with H2405 cells it was 5.00 to 6.00.

With `CNC(=O)c1cc(-c2cc(-c3cc(NC(=O)c4cnnc(C(C)(C)F)c4)ccc3C)ccn2)ccn1` [Example 495], the pIC50 in assay [1] is at least 7.00; in assay [2] it was at least 7.00; in the assay with Miapaca-2 cells it was 5.00 to 6.00; in the assay on H2405 cells, 6.30 to 7.00.

For `CNC(=O)c1cc(-c2cc(-c3cc(NC(=O)c4ccnc(C5(F)CC5)c4)ccc3C)cc(C)n2)ccn1` [Example 496], the pIC50 in assay [1] is at least 7.00; in assay [2], 6.30 to 7.00; with Miapaca-2 cells, 5.00 to 6.00; in the assay with H2405 cells, 6.30 to 7.00.

For the compound `CNC(=O)c1cc(-c2cc(-c3cc(NC(=O)c4ccnc(C(C)(C)F)c4)c(F)cc3C)ccn2)ccn1` [Example 497], the pIC50 in assay [1] is 6.30 to 7.00; in assay [2], 6.30 to 7.00; in the assay on Miapaca-2 cells it was 5.00 to 6.00; in the assay with H2405 cells, 6.30 to 7.00.

As to `[2H]C([2H])([2H])NC(=O)c1cc(-c2cc(-c3cc(NC(=O)c4ccnc(C5(F)CC5)c4)ccc3C)cc(C)n2)ccn1` [Example 498], the pIC50 was 6.30 to 7.00 in assay [1], 6.30 to 7.00 in assay [2], 5.00 to 6.00 in the assay with Miapaca-2 cells and 6.30 to 7.00 in the assay with H2405 cells.

`CNC(=O)c1cc(-c2cc(-c3cc(NC(=O)c4ccnc(C(C)(C)F)c4)ncc3C)ccn2)ccn1` [Example 499]: the pIC50 in assay [1] was at least 7.00; in assay [2], 6.30 to 7.00; in the assay on Miapaca-2 cells it was 5.00 to 6.00; in the assay with H2405 cells it was 6.30 to 7.00.

For the compound `Cc1ccc(NC(=O)c2cn(C)nc2C(F)(F)F)cc1-c1cncc(-c2ccnc(NC(=O)C3CC3)c2)c1` [Example 500], the pIC50 in assay [1] was at least 7.00; in assay [2], at least 7.00; in the assay with Miapaca-2 cells, 5.00 to 6.00; in the assay with H2405 cells, 5.00 to 6.00.

In the case of `Cc1ccc(NC(=O)c2ccc(C(F)(F)F)cc2)cc1-c1ccnc(-c2ccnc(NC(=O)C3CC3)c2)c1` [Example 501], the pIC50 in assay [1] is at least 7.00; in assay [2], at least 7.00; in the assay on Miapaca-2 cells, 5.00 to 6.00; with H2405 cells it was 6.30 to 7.00.

As for `Cc1ccc(NC(=O)c2cccc(C(F)(F)F)c2)cc1-c1ccnc(-c2ccnc(NC(=O)C3CC3)c2)c1` [Example 502], the pIC50 in assay [1] is at least 7.00; in assay [2], at least 7.00; in the assay with Miapaca-2 cells, 6.00 to 6.30; in the assay on H2405 cells, at least 7.00.

Take `Cc1ccc(NC(=O)c2cc(C(F)(F)F)ccc2F)cc1-c1ccnc(-c2ccnc(NC(=O)C3CC3)c2)c1` [Example 503]: the pIC50 in assay [1] was at least 7.00; in assay [2], at least 7.00; in the assay with Miapaca-2 cells, 5.00 to 6.00; with H2405 cells, 6.30 to 7.00.
